For the series the following is noted: disulfide bond, 20-membered ring, AgOTf/anisole/TFA, then DMSO/HCl, 50% DMSO-1N HCl, 2 steps.

Where two headings read alike, the source gives them in different places.

Under “from Ac-Cys(Acm)-Ile-Asp-His-Leu-Cys(Acm)-OH”, `CC[C@H](C)[C@@H]1NC(=O)[C@@H](NC(C)=O)CSSC[C@@H](C(=O)O)NC(=O)[C@H](CC(C)C)NC(=O)[C@H](Cc2c[nH]cn2)NC(=O)[C@H](CC(=O)O)NC1=O` [AcC*IDHLC*] came in with a ring closure, yield after HPLC of 68%.
In turn, `CC(C)C[C@@H]1NC(=O)[C@H](Cc2c[nH]cn2)NC(=O)[C@H](CC(=O)O)NC(=O)[C@H](C)NC(=O)[C@@H](N)CSSC[C@@H](C(=O)O)NC1=O` [C*ADHLC*] showed a ring closure, yield after HPLC (from H-Cys(Acm)-Ala-Asp-His-Leu-Cys(Acm)-OH) of 59%.
On to `CC(C)C[C@@H]1NC(=O)[C@H](Cc2c[nH]cn2)NC(=O)[C@H](CC(=O)O)NC(=O)[C@H](C2CCCCC2)NC(=O)[C@@H](N)CSSC[C@@H](C(=O)O)NC1=O` [C*ChgDHLC*], for which, under “from H-Cys(Acm)-Chg-Asp-His-Leu-Cys(Acm)-OH”, the ring closure, yield after HPLC was 68%.
Under “from H-Cys(Acm)-Chg-Met(O2)-His-Leu-Cys(Acm)-OH”, `CC(C)C[C@@H]1NC(=O)[C@H](Cc2c[nH]cn2)NC(=O)[C@H](CCS(C)(=O)=O)NC(=O)[C@H](C2CCCCC2)NC(=O)[C@@H](N)CSSC[C@@H](C(=O)O)NC1=O` [C*ChgMet(O2)HLC*] showed a ring closure, yield after HPLC of 41%.
`CC[C@H](C)[C@@H]1NC(=O)[C@H](c2ccccc2)NC(=O)[C@H](CCS(C)(=O)=O)NC(=O)[C@H](C2CCCCC2)NC(=O)[C@@H](N)CSSC[C@@H](C(=O)O)NC1=O` [C*ChgMet(O2)PhgIC*]: the ring closure, yield after HPLC (from H-Cys(Acm)-Chg-Met(O2)-Phg-Ile-Cys(Acm)-OH) was found to be 3%.
Consider `CC(C)C[C@@H]1NC(=O)[C@H](c2ccccc2)NC(=O)[C@H](CCS(C)(=O)=O)NC(=O)[C@H](C2CCCCC2)NC(=O)[C@@H](N)CSSC[C@@H](C(=O)O)NC1=O` [C*ChgMet(O2)PhgLC*], for which the ring closure, yield after HPLC (from H-Cys(Acm)-Chg-Met(O2)-Phg-Leu-Cys(Acm)-OH) was determined as 4%.
Consider `CC(C)C[C@@H]1NC(=O)[C@H](c2ccccc2)NC(=O)[C@H](CCS(C)(=O)=O)NC(=O)[C@H](C2CCCCC2)NC(=O)[C@@H](N)CSSC[C@H](C(=O)O)NC1=O` [C*ChgMet(O2)PhgLdC*], for which the ring closure, yield after HPLC (from H-Cys(Acm)-Chg-Met(O2)-Phg-Leu-dCys(Acm)-OH) stood at 42%.
`CC(C)C[C@@H]1NC(=O)[C@@H](Cc2ccccc2)NC(=O)[C@H](CCS(C)(=O)=O)NC(=O)[C@H](C2CCCCC2)NC(=O)[C@@H](N)CSSC[C@@H](C(=O)O)NC1=O` [C*ChgMet(O2)dFLC*] displayed a ring closure, yield after HPLC (from H-Cys(Acm)-Chg-Met(O2)-dPhe-Leu-Cys(Acm)-OH) of 26%.
In turn, `CC(C)C[C@@H]1NC(=O)[C@@H](Cc2c[nH]cn2)NC(=O)[C@H](CCS(C)(=O)=O)NC(=O)[C@H](C2CCCCC2)NC(=O)[C@@H](N)CSSC[C@@H](C(=O)O)NC1=O` [C*ChgMet(O2)dHLC*] showed a ring closure, yield after HPLC (from H-Cys(Acm)-Chg-Met(O2)-dHis-Leu-Cys(Acm)-OH) of 45%.
In the case of `CC(C)C[C@@H]1NC(=O)[C@@H](c2ccccc2)NC(=O)[C@H](CCS(C)(=O)=O)NC(=O)[C@H](C2CCCCC2)NC(=O)[C@@H](N)CSSC[C@@H](C(=O)O)NC1=O` [C*ChgMet(O2)dPhgLC*], under “from H-Cys(Acm)-Chg-Met(O2)-dPhg-Leu-Cys(Acm)-OH”, the ring closure, yield after HPLC was 8%.
For the compound `CC(C)C[C@@H]1NC(=O)[C@@H](c2ccccc2)NC(=O)[C@H](CCS(C)(=O)=O)NC(=O)[C@H](C2CCCCC2)NC(=O)[C@@H](N)CSSC[C@H](C(=O)O)NC1=O` [C*ChgMet(O2)dPhgLdC*], the ring closure, yield after HPLC (from H-Cys(Acm)-Chg-Met(O2)-dPhg-Leu-dCys(Acm)-OH) was 40%.
With `CC(C)C[C@@H]1NC(=O)[C@@H](Cc2ccc(O)cc2)NC(=O)[C@H](CCS(C)(=O)=O)NC(=O)[C@H](C2CCCCC2)NC(=O)[C@@H](N)CSSC[C@@H](C(=O)O)NC1=O` [C*ChgMet(O2)dYLC*], the ring closure, yield after HPLC (from H-Cys(Acm)-Chg-Met(O2)-dTyr-Leu-Cys(Acm)-OH) amounted to 37%.
Consider `CC[C@H](C)[C@@H]1NC(=O)[C@@H](N)CSSC[C@@H](C(=O)O)NC(=O)[C@H](CC(C)C)NC(=O)[C@H](Cc2c[nH]cn2)NC(=O)[C@H](CC(=O)OC)NC1=O` [C*ID(OMe)HLC*], for which the ring closure, yield after HPLC (from H-Cys(Acm)-Ile-Asp(OMe)-His-Leu-Cys(Acm)-OH) stood at 34%.
With `CC[C@H](C)[C@@H]1NC(=O)[C@@H](N)CSSC[C@@H](C(=O)OC)NC(=O)[C@H](CC(C)C)NC(=O)[C@H](Cc2c[nH]cn2)NC(=O)[C@H](CC(=O)OC)NC1=O` [C*ID(OMe)HLC—OMe*], under “from H-Cys(Acm)-Ile-Asp(OMe)-His-Leu-Cys(Acm)-OMe”, the ring closure, yield after HPLC was found to be 34%.
`CC[C@H](C)[C@@H]1NC(=O)[C@@H](N)CSSC[C@@H](C(=O)O)NC(=O)[C@H](CC(C)C)NC(=O)[C@H](C)NC(=O)[C@H](CC(=O)O)NC1=O` [C*IDALC*] came in with a ring closure, yield after HPLC (from H-Cys(Acm)-Ile-Asp-Ala-Leu-Cys(Acm)-OH) of 52%.
Consider `CC[C@H](C)[C@@H]1NC(=O)[C@@H](N)CSSC[C@@H](C(=O)O)NC(=O)[C@H](CC(C)C)NC(=O)[C@H](Cc2ccc3ccccc3c2)NC(=O)[C@H](CC(=O)O)NC1=O` [C*IDAla(2-Naph)LC*], for which the ring closure, yield after HPLC (from H-Cys(Acm)-Ile-Asp-Ala(2-Naph)-Leu-Cys(Acm)-OH) came out at 38%.
Consider `CC[C@H](C)[C@@H]1NC(=O)[C@@H](N)CSSC[C@@H](C(=O)O)NC(=O)[C@H](CC(C)C)NC(=O)[C@H](Cc2ccccn2)NC(=O)[C@H](CC(=O)O)NC1=O` [C*IDAla(2-Pyr)LC*], for which the ring closure, yield after HPLC (from H-Cys(Acm)-Ile-Asp-Ala(2-Pyr)-Leu-Cys(Acm)-OH) is 56%.
`CC[C@H](C)[C@@H]1NC(=O)[C@@H](N)CSSC[C@@H](C(=O)O)NC(=O)[C@H](CC(C)C)NC(=O)[C@H](CC2CCCCC2)NC(=O)[C@H](CC(=O)O)NC1=O` [C*IDChaLC*]: the ring closure, yield after HPLC (from H-Cys(Acm)-Ile-Asp-Cha-Leu-Cys(Acm)-OH) amounted to 34%.
On to `CC[C@H](C)[C@@H]1NC(=O)[C@H](Cc2ccccc2)NC(=O)[C@H](CC(=O)O)NC(=O)[C@H]([C@@H](C)CC)NC(=O)[C@@H](N)CSSC[C@@H](C(=O)O)NC1=O` [C*IDFIC*], for which the ring closure, yield after HPLC (from H-Cys(Acm)-Ile-Asp-Phe-Ile-Cys(Acm)-OH) is 37%.
`CC[C@H](C)[C@@H]1NC(=O)[C@@H](N)CSSC[C@@H](C(=O)O)NC(=O)[C@H](CC(C)C)NC(=O)[C@H](Cc2ccccc2)NC(=O)[C@H](CC(=O)O)NC1=O` [C*IDFLC*]: where the note is “from H-Cys(Acm)-Ile-Asp-Phe-Leu-Cys(Acm)-OH”, the ring closure, yield after HPLC was determined as 50%.
Under “from H-Cys(Acm)-Ile-Asp-His-Ile-Cys(Acm)-OH”, `CC[C@H](C)[C@@H]1NC(=O)[C@H](Cc2c[nH]cn2)NC(=O)[C@H](CC(=O)O)NC(=O)[C@H]([C@@H](C)CC)NC(=O)[C@@H](N)CSSC[C@@H](C(=O)O)NC1=O` [C*IDHIC*] registered a ring closure, yield after HPLC of 50%.
For the setting “from H-Cys(Acm)-Ile-Asp-His-Leu-Cys(Acm)-OH, 0.48 mM”, `CC[C@H](C)[C@@H]1NC(=O)[C@@H](N)CSSC[C@@H](C(=O)O)NC(=O)[C@H](CC(C)C)NC(=O)[C@H](Cc2c[nH]cn2)NC(=O)[C@H](CC(=O)O)NC1=O` [C*IDHLC*] gave a ring closure, yield after HPLC of 73%.
In turn, `CC[C@H](C)[C@@H]1NC(=O)[C@@H](N)CSSC[C@@H](C(N)=O)NC(=O)[C@H](CC(C)C)NC(=O)[C@H](Cc2c[nH]cn2)NC(=O)[C@H](CC(=O)O)NC1=O` [C*IDHLC*—NH2] returned a ring closure, yield after HPLC (from H-Cys(Acm)-Ile-Asp-His-Leu-Cys(Acm)-NH2) of 58%.
For the setting “from H-Cys(Acm)-Ile-Asp-His-Leu-Cys(Acm)-OMe”, `CC[C@H](C)[C@@H]1NC(=O)[C@@H](N)CSSC[C@@H](C(=O)OC)NC(=O)[C@H](CC(C)C)NC(=O)[C@H](Cc2c[nH]cn2)NC(=O)[C@H](CC(=O)O)NC1=O` [C*IDHLC—OMe*] had a ring closure, yield after HPLC of 35%.
On to `CC[C@H](C)[C@@H]1NC(=O)[C@@H](N)CSSC[C@@H](C(=O)O)NC(=O)[C@H](c2ccccc2)NC(=O)[C@H](Cc2c[nH]cn2)NC(=O)[C@H](CC(=O)O)NC1=O` [C*IDHPhgC*], for which the ring closure, yield after HPLC (from H-Cys(Acm)-Ile-Asp-His-Phg-Cys(Acm)-OH) came to 37%.

The values above are taken from patent US6511961B1, “Cyclic peptides and medicinal use thereof” (Toray Industries, Inc., priority 1997, dated 2003).
